Values quoted from earlier work as cited in US11369558B1, “Multi-component nutritional supplement formulations and treatment regimen” (priority 2018, dated 2022).

Settings: in the human body

C[S+](C)[O-] [DMSO, dimethyl sulfoxide]
Share of DMSO converted to MSM: approximately 15%
